# Experimental data as given in patent publication US9265735B2, “Methods for screening to identify therapeutic agents for Alzheimer's disease and use thereof” (New York University, priority 2010, dated 2016).
# Entries after “also recorded” stand apart in the source; their conditions may differ.
# Legend:
# [1] = system: PS1KO blastocysts; experiment: Lysosomal pH measurement with Dextran conjugated Lysosensor Yellow/Blue in PS1KO cells; assay type: cell-based, Murine; conditions: PS1KO cells
# Protocol: For results presented in Example 1, quantification of lysosomal pH was determined using Dextran conjugated Lysosensor Yellow/Blue DND-160 (Invitrogen) as follows. Wild Type and PS1KO blastocysts were grown in High Glucose DMEM+15% FBS with antibiotics to ˜90% confluency. Cells were then trypsinized, harvested (1×10^6 cells/ml) and loaded with 1 mg/ml of Lysosensor-dextran for 1 hour at 37° C. with 5% CO2. The cells were then washed 3× in HBSS and aliquoted at […] into a black 96-well microplate. pH calibration was performed according to the protocol established by Diwu et al (Diwu et al., (1999). Chem Biol 6, 411-418). Briefly, wild type and PS1KO blastocysts were treated with 10 μM monensin and 10 uM nigericin in MES buffer (5 mM NaCl, 115 mM KCL, 1.3 mM MgSO4, 25 mM MES), with the pH adjusted to a range from 3.5-7.0. The samples were read in a Wallac Victor 2 fluorimeter (Perkin Elmer) with excitation at 355 nm. The ratio of emission 440/535 nm was then calculated for each sample. The pH values were determined from the linear standard curve generated via the pH calibration samples.
# In a more particular embodiment, quantification of lysosomal pH is determined using Dextran conjugated Lysosensor Yellow/Blue (Invitrogen) as follows. 3000 Wild Type and PS1KO blastocysts were seeded in multiple wells of black, clear bottom tissue culture treated 96 well dish and grown in High Glucose DMEM+15% FBS with antibiotics to ˜90% confluency (˜24 hours). 2 ul of 0.5 mg/ml lysosensor-dextran (1:100 dilution of a 5 mg/ml stock) was added and incubated for 1 hour at 37° C. with 5% CO2. The cells were then washed 3× in HBSS. See also methods and results set forth herein below in Example 2. This modified protocol represents an optimized protocol for the purposes set forth herein.
# Quantification of lysosomal pH was determined using Dextran conjugated Lysosensor Yellow/Blue (Invitrogen). 3000 Wild Type and PS1KO blastocysts were seeded in multiple wells of black, clear bottom tissue culture treated 96 well dish and grown in High Glucose DMEM+15% FBS with antibiotics to ˜90% confluency (˜24 hours). 2 ul of 0.5 mg/ml lysosensor-dextran (1:100 dilution of a 5 mg/ml stock) was added and incubated for 1 hour at 37° C. with 5% CO2. The cells were then washed 3× in HBSS.
# Performed according to the protocol established by Diwu et al (supra). Briefly, wild type and PS1KO blastocysts were treated with 10 uM monensin and 10 uM nigericin in MES buffer (5 mM NaCl, 115 mM KCL, 1.3 mM MgSO4, 25 mM MES), with the pH adjusted to a range from 3.5-7.0 for 7-10 min prior to lysosensor addition (the additional hour in the buffer seems to have no effect), these cells are not washed in HBSS since permeabilization with ionophores makes them susceptible to detachment.
# The samples were read in a Wallac Victor 2 fluorimeter (Perkin Elmer) with excitation at 355 nm. The ratio of emission 440 nm/535 nm was then calculated for each sample. pH values were determined from the linear std curve generated via the pH calibration samples.
# [2] = system: Cat B; experiment: Cat B activity by MagicRed-Cathepsin B (MR-Cat B) in PS1KO cells; assay type: cell-based, Murine; conditions: PS1KO cells; 200 μM, 6 h
# Protocol: Immunocytochemistry was performed as previously described (Yu et al., 2005). Secondary antibodies used were from Invitrogen: goat anti-mouse/rabbit/rat Alexa Fluor 488 and goat anti-mouse/rabbit/rat Alexa Fluor 568. Cells were imaged using a plan-Apochromat 40× or 100×/1.4 oil DIC objective lens on the laser scanning confocal microscope, LSM 510 META, with LSM software v3.5 (Carl Zeiss MicroImaging Inc). Images were analysed using ImageJ program (NIH). Organelles with low internal pH were labeled by LysoTracker DND-99 dye (Invitrogen) at the final 100 nM for 30 min. Following 4% PFA fixation, cells were further counter stained with Cat D, LMAP1, or LC3 antibody for 4 hrs then visualized with Alexa Fluor 488 conjugated secondary antibody. Active Cat D was labeled by adding Bodipy-FL-pepstatin A directly to the medium at a final concentration of 1 μg/ml for 1 hr. Following 4% PFA fixation, cells were counter stained with Cat D antibody for 4 hrs and visualized with Alexa Fluor 568 conjugated secondary antibody. […] Cells were incubated for 30 min with MR-Cathepsin B prior to mounting them under the confocal microscope. […]
# Active Cat D was labeled by adding Bodipy-FL-pepstatin A directly to the medium at a final concentration of 1 mg/ml for 1 hr. […] Cat B staining with MagicRed-Cathepsin B was also measured fluorometrically with a Wallac Victor 2 fluorometer.
# [3] = system: LC3 puncta; experiment: LC3 puncta by LC3 immunocytochemistry in PS1KO cells; assay type: cell-based, Murine; conditions: 200 μM, 6 h
# Protocol: Immunocytochemistry was performed as previously described (Yu et al., 2005). Secondary antibodies used were from Invitrogen: goat anti-mouse/rabbit/rat Alexa Fluor 488 and goat anti-mouse/rabbit/rat Alexa Fluor 568. Cells were imaged using a plan-Apochromat 40× or 100×/1.4 oil DIC objective lens on the laser scanning confocal microscope, LSM 510 META, with LSM software v3.5 (Carl Zeiss MicroImaging Inc). Images were analysed using ImageJ program (NIH). Organelles with low internal pH were labeled by LysoTracker DND-99 dye (Invitrogen) at the final 100 nM for 30 min. Following 4% PFA fixation, cells were further counter stained with Cat D, LMAP1, or LC3 antibody for 4 hrs then visualized with Alexa Fluor 488 conjugated secondary antibody. Active Cat D was labeled by adding Bodipy-FL-pepstatin A directly to the medium at a final concentration of 1 μg/ml for 1 hr. Following 4% PFA fixation, cells were counter stained with Cat D antibody for 4 hrs and visualized with Alexa Fluor 568 conjugated secondary antibody. […] Cells were incubated for 30 min with MR-Cathepsin B prior to mounting them under the confocal microscope. To block v-ATPase proton pump activity, ammonium chloride (NH4Cl) was added directly to the medium at a final concentration of 20 mM for 6 hrs prior to LysoTracker addition.
# [4] = system: p62; experiment: p62 accumulation in PS1KO cells; assay type: cell-based, Murine; conditions: 200 μM, 6 h
# Protocol: Immunoblotting was performed as previously described (Yu et al., 2005). Briefly, cells used for Western blot analysis were lysed in buffer containing 50 mM Tris (pH=7.4), 150 mM NaCl, 1 mM EDTA, 1 mM EGTA, 1% Triton X-100 and 0.5% Tween-20 with protease and phosphatase inhibitors. Following electrophoresis on 4-20% gradient gel (Invitrogen), proteins were transferred onto 0.45 μm PVDF membranes (Millipore) and the membrane was incubated overnight in primary antibody then incubated with HRP conjugated secondary antibody. The blot was developed by ECL-kit (GE Healthcare). To assess v-ATPase V0a subunit glycosylation, lysate from WT and PS1KO cells were either treated for 24 hrs at 37° C. with PNGase F or O-glycanase using an enzymatic deglycosylation kit according to the manufacturer's instructions (PROzyme) or with Endo H (New England Biolabs) for 24 hrs at 37° C. Total glycoproteins were isolated using Glycoprotein Isolation Kit, ConA according to the manufacturer's instructions (Thermo Scientific).
# [5] = system: autophagic vacuoles (AVs); experiment: AV accumulation by EM morphometry in PS1KO cells; assay type: cell-based, Murine; conditions: 200 μM, 6 h
# Protocol: Following treatments, cells were prepared for EM as previously described and AVs, identified using previous morphological criteria (Yu et al., 2005), were classified and counted on electron micrographs (7900× print magnification) of 20 EM images from different lines in each experimental group.
# [6] = system: tau; conditions: rats; bilateral injection into the hippocampus; cited from earlier work
# [7] = in vivo; cited from earlier work
structure (smiles),measurement,setting,value
CC(C)NCC(O)c1ccc(O)c(O)c1 (centres unmarked) [isoproterenol],lysosomal pH,"[1]; 200 μM, 6 h",restored to WT levels
same,effect on elevated lysosomal pH in PS1KO cells,[1]; FIG. 10A/G,normal levels or even hyperacidic levels; also recorded: restored to WT levels
same,Cat B activity as measured by MR-Cat B,[2],restored to WT levels
same,LC3 puncta accumulation determined by LC3 ICC,[3],reversed
same,p62 accumulation,[4],reversed
same,AV accumulation by EM morphometry (total area occupied by AVs per EM field),[5],reversed
same,tau phosphorylation and spatial memory,[6],induces Alzheimer-like hyperphosphorylation of tau and spatial memory defects
same,crossing of the blood brain barrier (BBB),[7],cross the blood brain barrier
